Each block holds one compound with its values, some of them ahead of it. V = bicyclic LNA-type nucleotide of structure V in the publication's (LNA marked in bold); l = locked nucleic acid (LNA); d = 2'-deoxy (DNA)
How the values were obtained:
[1] = tested on: 5′-(AAAAAAAAAAAAAA)-3′; experiment: Tm of duplex (spectrophotometric melting curves); assay type: binding; conditions: vs RNA 5′-(AAAAAAAAAAAAAA)-3′; 10 mM Na2HPO4 pH 7.0, 100 mM NaCl, 0.1 mM EDTA
Description: (§1) Thermostability of oligonucleotides containing monomers of formula V, X, Y and Z^T, Z^U, Z^G, Z^C, Z^A, Z^MeC. The thermostability of the LNA modified oligonucleotides were determined spectrophotometrically using a spectrophotometer equipped with a thermoregulated Peltier element. Hybridisation mixtures of 1 ml were prepared containing either of 3 different buffers (10 mM Na2HPO4, pH 7.0, 100 mM NaCl, 0.1 mM EDTA; 10 mM Na2HPO4 pH 7.0, 0.1 mM EDTA; 3M tetramethylammoniumchlorid (TMAC), 10 mM Na2HPO4, pH 7.0, 0.1 mM EDTA) and equimolar (1 μM or 1.5 μM) amounts of the different LNA modified oligonucleotides and their complementary or mismatched DNA or RNA oligonucleotides. Identical hybridisation mixtures using the unmodified oligonucleotides were prepared as references. The Tm's were obtained as the first derivative of the melting curves. FIG. 2 illustrates the monomeric LNAs used. The nomenclature V, X, Y and Z^T, Z^U, Z^G, Z^C, Z^A, Z^MeC refer to structures V, X, Y and Z of FIG. 2. In the tables, the nucleobases of the LNA monomers are indicated. Furthermore, for the thio and amino variants of the LNA structure Z of the last two tables, the nomenclature used is, e.g., Z^TS and Z^TNH, respectively.

[2] = tested on: 5′-d(AAAATAAAA)-3′; experiment: Tm of duplex (spectrophotometric melting curves); assay type: binding; conditions: vs 5′-d(AAAATAAAA)-3′ (mismatch); 10 mM Na2HPO4 pH 7.0, 100 mM NaCl, 0.1 mM EDTA
Description: as §1

[3] = tested on: 5′-d(AAAAAAAAAAAAAA)-3′; experiment: Tm of duplex (spectrophotometric melting curves); assay type: binding; conditions: vs 5′-d(AAAAAAAAAAAAAA)-3′; 10 mM Na2HPO4 pH 7.0, 100 mM NaCl, 0.1 mM EDTA
Description: as §1

[4] = tested on: 5′-d(AAAACAAAA)-3′; experiment: Tm of duplex (spectrophotometric melting curves); assay type: binding; conditions: vs 5′-d(AAAACAAAA)-3′ (mismatch); 10 mM Na2HPO4 pH 7.0, 100 mM NaCl, 0.1 mM EDTA
Description: as §1

[5] = tested on: 5′-d(AAAAGAAAA)-3′; experiment: Tm of duplex (spectrophotometric melting curves); assay type: binding; conditions: vs 5′-d(AAAAGAAAA)-3′ (mismatch); 10 mM Na2HPO4 pH 7.0, 100 mM NaCl, 0.1 mM EDTA
Description: as §1

[6] = tested on: 5′-(AAAAAAGAAAAAAA)-3′; experiment: Tm of duplex (spectrophotometric melting curves); assay type: binding; conditions: vs RNA 5′-(AAAAAAGAAAAAAA)-3′ (mismatch); 10 mM Na2HPO4 pH 7.0, 100 mM NaCl, 0.1 mM EDTA
Description: as §1

[7] = molecular target: terminal deoxynucleotidyl transferase (TdT) (Bos taurus, UniProt P06526); experiment: Oligonucleotide tailing reaction with triphosphate as substrate; assay type: biochemical; conditions: 15mer primer, 25 U TdT, 32, 64 or 128 μM triphosphate, 90 min, 37° C.
Description: LNA-thymidine-5'-triphosphate (LNA-TTP) as a substrate for terminal deoxynucleotidyl transferase (TdT). In order to test the ability of the triphosphate of LNA-TTP (Example 123) to be accepted by terminal deoxynucleotidyl transferase as a substrate, an oligonucleotide tailing reaction was performed. A 15mer primer (sequence: [NT] ID NO:14) and a mixture of 8 to 32 base oligonucleotide markers were 5' end labelled with [γ^33P] ATP and T4 polynucleotide kinase. Reactions were boiled for 5 min after labelling to remove any PNK activity. Four picomoles of the labelled primer, 25 U terminal deoxynucleotidyl transferase and 32, 64 or 128 μM dTTP or LNA-TTP were incubated in 25 μl 100 mM cacodylate buffer pH 7.2, 2 mM CoCl2 and 0.2 mM 2-mercaptoethanol for 90 min at 37° C. […] Autoradiography using Biomax film was carried out on the dry gel.

[8] = tested on: δ opioid receptor; experiment: Warm water tail flick test, [D-Ala2]deltorphin-induced antinociception; assay type: in vivo, rats; conditions: 60 μg, i.th, saline-treated controls, 52° C. water
Description: Blockade by Antisense Locked Nucleic Acids (LNA) of [D-Ala2]Deltorphin-Induced Antinociception in the Warm Water Tail Flick Test in Conscious Rats. Male Sprague-Dawley rats (300 g) were implanted with an intrathecal (i.th). polyethylene catheter and allowed to recover for at least 5 days before start of injections (including controls). The antisense LNA compounds (12.5 and 2.5 μg per injection) were administered in a 5 μl volume twice-daily (08.00 and 17.00 h) for 3 days. No signs of non-specific effects or toxicity could be detected, as shown by observations of locomotor behavior and measurements of body weight. The day after the last injection the rats were injected with [D-Ala2]deltorphin (60 μg, i.th) and tested in the warm water (52° C.) tail flick test for δ opioid receptor-mediated antinociception. Data are presented in FIG. 14 as medians based on 6-8 animals per group (data converted to percent maximum possible response, % MPE). Statistical analyses were performed by means of Kruskal-Wallis 1-way ANOVA by ranks, followed by comparisons of treatments versus control.

[9] = tested on: MCF-7 human breast cancer cells
[10] = tested on: human MCF-7 breast cancer cells
[11] = tested on: MCF-7 human breast cancer cells; remark: listed apart in the source
[12] = tested on: terminal deoxynucleotidyl transferase (TdT); experiment: Tailing of primers with dATP; assay type: biochemical; conditions: 4 pmol primer, 25 U TdT, 16 μM dATP, 90 min, 37° C.
Description: The ability of terminal deoxynucleotidyl transferase (TdT) to tail LNA modified oligonucleotides depends on the design of the oligomer. The following 15mer primers and a mixture of 8 to 32 base oligonucleotide markers were 5′ end labelled with [γ^33P] ATP and T4 polynucleotide kinase (where LNA monomers are in bold):
Reactions were boiled for 5 min after labelling to remove any PNK activity. Four picomoles of each labelled primer, 25 U terminal deoxynucleotidyl transferase and 16 μM dATP were incubated in 25 μl 100 mM cacodylate buffer pH 7.2, 2 mM CoCl2 and 0.2 mM 2-mercapto-ethanol for 90 min at 37° C. The reactions were stopped by the addition of formamide stop solution and the reaction products run on a 19% polyacrylamide 7 M urea gel with the labelled markers. Autoradiography using Biomax film was carried out on the dry gel. […] Primer PZ2 (lane 5) was not extended under these reaction conditions. We conclude that the TdT enzyme will tolerate LNA monomers within the oligonucleotide, but not at the extreme 3′ end.

[13] = molecular target: Exonuclease III (Escherichia coli, UniProt P09030)
[14] = tested on: Arabidopsis mRNA, AMV Reverse Transcriptase; experiment: First strand cDNA synthesis priming; assay type: biochemical; conditions: 42° C., 2 hours, vs anchored poly dT control
Description: First Strand cDNA Synthesis Using Poly dT Primers Containing LNA T monomers. Reactions were set up in order to test the ability of poly dT primers containing LNA T residues to prime 1st strand cDNA synthesis. The following poly dT primers were tested (LNA monomers are in bold): […]
Reactions were set up as follows for each of the primers above: […]
This mix was then heated to 75° C. for 3 min and then allowed to cool at room temperature for at least 10 min.
The following was then added to each of the reactions:
The reactions were incubated at 42° C. for 2 hours. The reactions were then heated at 95° C. for 3 min before loading onto a 6% polyacrylamide 7M urea gel. The gel was fixed in 10% acetic acid/10% methanol before transferring to 3 MM paper and drying. The dried gel was exposed to Kodak Biomax autoradiography film overnight.

Compound: 5′-d(TTTTTTTTTT)-3′ (SEQ ID NO: 95): almost fully modified LNA oligomer containing exclusively Z^T (52-56) (LNA Z^T monomers)
Tm (° C.) Na2HPO4/NaCl/EDTA [1]: 70 °C | Tm (° C.) Na2HPO4/NaCl/EDTA [2]: 65 °C | Tm (° C.) Na2HPO4/NaCl/EDTA [3]: 80 °C | Tm (° C.) Na2HPO4/NaCl/EDTA [4]: 63 °C | Tm (° C.) Na2HPO4/NaCl/EDTA [5]: 55 °C

Compound: 5′-d(TTTTTTTTTTTTTT)-3′ (SEQ ID NO: 113): fully modified poly-T oligonucleotide of structure V (sugars from the 5' end V13 d1, backbone not given here)
Tm (° C.) Na2HPO4/NaCl/EDTA [1]: 42 °C | Tm (° C.) Na2HPO4/NaCl/EDTA [3]: <10 °C | Tm (° C.) Na2HPO4/NaCl/EDTA [6]: 37 °C

fraction of +1 product extended by a further base [7]: ~50% | primer extension product [7]: extended by one base
Compound: Cc1cn(C2OC3(COP(=O)(O)OP(=O)(O)OP(=O)(O)O)COC2C3O)c(=O)[nH]c1=O (stereo not drawn) [LNA-TTP, LNA-thymidine-5′-triphosphate]

primer extension product [7]: greater than 100 nucleotides
Compound: Cc1cn([C@H]2C[C@H](O)[C@@H](COP(=O)(O)OP(=O)(O)OP(=O)(O)O)O2)c(=O)[nH]c1=O [dTTP, reference compound]

Compound: CC(C)[C@H](NC(=O)[C@H](CCC(=O)O)NC(=O)[C@H](Cc1ccccc1)NC(=O)[C@@H](C)NC(=O)[C@@H](N)Cc1ccc(O)cc1)C(=O)N[C@H](C(=O)NCC(=O)O)C(C)C [deltorphin, [D-Ala2]deltorphin]
antinociceptive effect [8]: robust antinociceptive effect

Compound: AL16: LNA oligo 5′-d(TGT GTG AAA TTG TTA T)-3′ (SEQ ID NO:57); also fluorescein/FITC-labelled (DNA TGTGTGAAATTGTTAT; LNA-containing, positions not given here, fluorescein label)
added radioactivity associated with cellular material [9]: approximately 0.8% | intracellular localisation [10]: predominantly was localised in the nuclei of the cells | number of green fluorescent cells after additional 3 days [11]: appeared unaltered

Compound: AL17: LNA oligo 5′-d(ATA AAG TGT AAA G)-3′ (SEQ ID NO:58); also fluorescein/FITC-labelled (DNA ATAAAGTGTAAAG; LNA-containing, positions not given here, fluorescein label)
added radioactivity associated with cellular material [9]: approximately 0.4%

Compound: ODN#10: oligodeoxynucleotide (SEQ ID NO:56), a 35-mer complementary to human Cathepsin D (DNA TTAACGTAGGTGCTGGACTTGTCGCTGTTGTACTT; DNA, backbone and methylation of C not given here) [reference compound]
added radioactivity associated with cellular material [9]: approximately 1.4%

Compound: PZ2: 5′-GC ATG TGC TGG AGA T-3′ (SEQ ID NO: 13), single LNA monomer at the 3′ end (DNA GCATGTGCTGGAGAT; sugars from the 5' end d14 l1, backbone and methylation of C not given here)
tail length [12]: not extended | full length product left after the 5 minute incubation ([13]; 10 Units Exonuclease III, 37° C., 5 min, primer hybridised to template): 62% | full length band, % of the signal ([13]; in the absence of the enzyme): 96%

Compound: RTZ 5: poly dT primer 5′-TTT TTT TTT T-3′ (SEQ ID NO: 69) containing LNA T monomers (TTTTTTTTTT; LNA T monomers)
priming of 1st strand cDNA synthesis [14]: yield was significantly lower than that produced with the control oligo primer
